Where no end group is shown, it is not given here. [ ]: non-standard residue; d: D form. Cit = NC(=O)NCCC[C@H](N)C(=O)O; Nle = CCCC[C@H](N)C(=O)O
How the values were obtained:
Test in all cases: REVEAL binding assay
Conditions in all cases: score as percentage of the signal generated by the positive control peptide
HLA-B35 = system: HLA-B35
HLA-A11 = HLA-A11 (Homo sapiens, UniProt P04439, A114D/F33Y/S129P)
Procedure: (§1) Binding properties to HLA for the ninemers listed in table 6 were tested for the following HLA-classes:
(§2) HLA-A1, HLA-A2, HLA-A3, HLA-A11, HLA-A24, HLA-A29, HLA-B7, HLA-B8, HLA-B14, HLA-B15, HLA-B27, HLA-B35, HLA-B40.
(§3) The peptides were synthesized as a Prospector PEPscreen®: Custom Peptide Library. […] Quality control by MALDI-TOF Mass Spectrometry was carried out on 100% of samples.
(§4) The REVEAL™ binding assay determined the ability of each candidate peptide to bind to one or more MHC class I alleles and stabilizing the MHC-peptide complex. By comparing the binding to that of high and intermediate affinity T cell epitopes, the most likely immunogenic peptides in a protein sequence can be identified. Detection is based on the presence or absence of the native conformation of the MHC-peptide complex. Each peptide is given a score relative to the positive control peptide, which is a known T cell epitope.

HLA-B7 = HLA-B7 (Homo sapiens, UniProt P01889)
Procedure: as §1, §2, §3, §4

HLA-A3 = HLA-A3 (Homo sapiens, UniProt P04439)
Procedure: as §1, §2, §3, §4

HLA-A2 = HLA-A2 (Homo sapiens, UniProt P04439, D140Y/D185E/D98H/E176V/E277Q/G131W/G231S/I119V/I121R/I166T/I218V/N151K/N90K/P208A/P217A/Q86G/Q94H/R138H/R169H)
Procedure: as §1, §2, §3, §4

HLA-B27 = HLA-B27 (Homo sapiens, UniProt P01889, D138H/D201E/E176V/E204Q/G107R/H137Y/K202T/N104T/N87E/Q56L/Q94K/R106L/R155S/R180L/S101D/S121N/S48T/Y140D/Y33H/Y91C)
Procedure: as §1, §2, §3, §4

HLA-A29 = system: HLA-A29
HLA-B40 = system: HLA-B40
Procedure: as §1, §2
The peptides were synthesized as a Prospector PEPscreen®: Custom Peptide Library. Peptides 8-15 amino acids in length were synthesized in 0.5-2 mg quantities with high average purity. Quality control by MALDI-TOF Mass Spectrometry was carried out on 100% of samples.
as §4, with “epitope. The score of the test peptide is reported quantitatively as a percentage of the signal generated by the positive control peptide, and the peptide is indicated as having a putative pass or fail result. Assay performance is confirmed by including an intermediate control peptide that is known to bind with weaker affinity to the allele under investigation.” for “epitope.”

HLA-B8 = system: HLA-B8
Excerpt: (§5) The REVEAL™ binding assay determined the ability of each candidate peptide to bind to one or more MHC class I alleles and stabilizing the MHC-peptide complex. […] Detection is based on the presence or absence of the native conformation of the MHC-peptide complex. Each peptide is given a score relative to the positive control peptide, which is a known T cell epitope.

HLA-B14 = system: HLA-B14
Excerpt: as §5

HLA-A24 = system: HLA-A24
HLA-B15 = system: HLA-B15
HLA-A1 = system: HLA-A1

Chain of HLA-A3 (P04439 25-299): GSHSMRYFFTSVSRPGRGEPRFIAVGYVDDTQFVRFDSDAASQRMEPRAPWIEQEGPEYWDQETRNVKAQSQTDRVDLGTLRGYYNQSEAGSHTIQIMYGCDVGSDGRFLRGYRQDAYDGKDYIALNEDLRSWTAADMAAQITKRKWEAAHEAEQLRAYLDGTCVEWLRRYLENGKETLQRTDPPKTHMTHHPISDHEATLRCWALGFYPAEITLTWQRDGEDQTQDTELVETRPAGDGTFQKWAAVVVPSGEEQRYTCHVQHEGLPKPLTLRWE
Chain of HLA-A3 (P61769 21-119, further chain): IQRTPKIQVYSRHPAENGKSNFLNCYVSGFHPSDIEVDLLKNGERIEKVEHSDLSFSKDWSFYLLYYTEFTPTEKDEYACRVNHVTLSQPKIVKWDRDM
Chain of HLA-B7 (P61769 21-119): as the sequence (P61769 21-119, further chain) above
Chain of HLA-B7 (P01889 25-299): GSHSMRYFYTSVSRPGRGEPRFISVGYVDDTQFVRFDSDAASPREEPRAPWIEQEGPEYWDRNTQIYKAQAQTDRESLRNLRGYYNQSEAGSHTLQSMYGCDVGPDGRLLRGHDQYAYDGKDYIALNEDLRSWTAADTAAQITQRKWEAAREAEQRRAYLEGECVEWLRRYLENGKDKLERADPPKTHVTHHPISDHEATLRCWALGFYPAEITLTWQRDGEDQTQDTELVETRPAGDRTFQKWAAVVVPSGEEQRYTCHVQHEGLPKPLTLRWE

Substance	REVEAL binding score, HLA-type B35 (HLA-B35) [%]	REVEAL binding score, HLA-type A11 (HLA-A11) [%]	REVEAL binding score, HLA-type B7 (HLA-B7) [%]	REVEAL binding score, HLA-type A3 (HLA-A3) [%]	REVEAL binding score, HLA-type A2 (HLA-A2) [%]	REVEAL binding score, HLA-type B27 (HLA-B27) [%]	REVEAL binding score, HLA-type A29 (HLA-A29) [%]	REVEAL binding score, HLA-type B40 (HLA-B40) [%]	REVEAL binding score, HLA-type B8 (HLA-B8) [%]	REVEAL binding score, HLA-type B14 (HLA-B14) [%]	REVEAL binding score, HLA-type A24 (HLA-A24) [%]	REVEAL binding score, HLA-type B15 (HLA-B15) [%]	REVEAL binding score, HLA-type A1 (HLA-A1) [%]
ARALAHGVR	2.45	3.83	4.70	2.35	6.72	3.55	31.96	50.23	18.91	1.10	1.15	13.58	20.62
ATGNLPGCS	7.00	2.54	1.12	3.64	4.62	2.56	22.84	90.48	10.73	0.87	0.64	3.81	7.13
DLMGYIPLV	2.49	5.01	4.84	4.66	103.34	1.05	25.64	39.33	22.65	0.23	1.14	7.67	16.67
EL[Nle]GYIPLI	2.55	3.21	0.68	4.54	97.87	0.67	20.93	43.10	17.05	0.14	0.92	8.91	18.29
GGQIIGGNY	2.22	2.40	1.09	2.23	7.06	0.24	14.38	15.03	10.52	0.25	0.39	90.62	24.04
GGQIVGGVY	0.54	2.71	3.99	3.47	6.88	0.66	20.46	30.75	14.66	0.32	1.78	110.34	13.97
GITFSIYLI	9.27	4.88	2.07	1.42	7.27	3.29	10.42	68.30	8.94	0.63	3.05	8.15	9.61
GKVIDTLTC	3.11	3.96	0.25	3.69	4.89	0.84	14.26	19.45	13.63	0.16	0.41	7.31	14.77
GNIPGSTYS	7.86	1.54	0.94	5.04	5.07	1.58	24.38	55.59	6.32	0.34	0.00	4.80	7.54
GNLPGCSFS	4.80	2.41	1.84	3.54	6.11	13.44	13.48	80.68	8.71	0.81	1.13	3.96	6.44
GP[Cit]IGVRAT	2.25	2.72	5.38	3.48	9.16	0.59	11.88	19.61	9.99	0.13	0.16	7.29	18.60
GQIIGGNYL	2.60	2.77	2.39	3.01	12.96	0.64	14.17	31.55	11.90	0.22	0.47	173.66	20.65
GQIVGGVYL	3.24	4.46	6.56	4.80	55.85	1.01	13.73	24.20	14.53	0.37	0.50	182.45	15.07
GRVIETLTS	3.56	27.62	1.25	12.46	5.26	1.05	15.59	38.91	12.91	0.20	0.88	8.31	14.42

From patent publication US9550811B2, “Peptide scaffold design” (BIONOR IMMUNO AS, priority 2010, dated 2017)
